Test results reported in patent publication US7659245B2, “Macrocylic inhibitors of hepatitis C virus” (Tibotec Pharmaceuticals Ltd, priority 2005, dated 2010).

Legend:
[1] = biological target: full-length hepatitis C NS3 protease enzyme (HCV NS3/4A protease complexes) (Hepatitis C virus genotype 1a, UniProt P27958); test: Inhibition assay (enzymatic assay) of HCV NS3/4A protease; format: biochemical; conditions: enzyme 1 nM, 25 μM NS4A cofactor, 0.5 μM depsipeptide substrate, 30° C., competitive model
Protocol: The aim of this in vitro assay is to measure the inhibition of HCV NS3/4A protease complexes by the compounds of the present invention. This assay provides an indication of how effective compounds of the present invention would be in inhibiting HCV NS3/4A proteolytic activity.
The inhibition of full-length hepatitis C NS3 protease enzyme was measured essentially as described in Poliakov, 2002 Prot Expression & Purification 25 363 371. Briefly, the hydrolysis of a depsipeptide substrate, Ac-DED(Edans)EEAbuψ[COO]ASK(Dabcyl)-NH2 (AnaSpec, San José, USA), was measured spectrofluorometrically in the presence of a peptide cofactor, KKGSVVIVGRIVLSGK (Åke Engström, Department of Medical Biochemistry and Microbiology, Uppsala University, Sweden). [Landro, 1997 #Biochem 36 9340-9348]. The enzyme (1 nM) was incubated in 50 mM HEPES, pH 7.5, 10 mM DTT, 40% glycerol, 0.1% n-octyl-D-glucoside, with 25 μM NS4A cofactor and inhibitor at 30° C. for 10 min, whereupon the reaction was initiated by addition of 0.5 μM substrate. Inhibitors were dissolved in DMSO, sonicated for 30 sec. and vortexed. The solutions were stored at −20° C. between measurements.
The final concentration of DMSO in the assay sample was adjusted to 3.3%. The rate of hydrolysis was corrected for inner filter effects according to published procedures. [Liu, 1999 Analytical Biochemistry 267 331-335]. Ki values were estimated by non-linear regression analysis (GraFit, Erithacus Software, Staines, MX, UK), using a model for competitive inhibition and a fixed value for Km (0.15 μM). A minimum of two replicates was performed for all measurements.

[2] = system: HCV replicons (Huh-7 luc/neo cells, NS3-NS5B regions of HCV type 1b); test: Replicon assay: inhibition of HCV RNA replication in Huh-Luc cells (luciferase read-out); format: cell-based; conditions: Hepatitis C virus, Huh-7, 72 h, HCV type 1b replicon, luciferase activity after three days
Protocol: The in vitro antiviral activity against HCV of the compounds of formula (I) was tested in a cellular HCV replicon system based on Lohmann et al. (1999) Science 285:110-113, with the further modifications described by Krieger et al. (2001) Journal of Virology 75: 4614-4624 (incorporated herein by reference), which is further exemplified in the examples section. This model, while not a complete infection model for HCV, is widely accepted as the most robust and efficient model of autonomous HCV RNA replication currently available. […] It will be appreciated that it is important to distinguish between compounds that specifically interfere with HCV functions from those that exert cytotoxic or cytostatic effects in the HCV replicon model, and as a consequence cause a decrease in HCV RNA or linked reporter enzyme concentration. Assays are known in the field for the evaluation of cellular cytotoxicity based for example on the activity of mitochondrial enzymes using fluorogenic redox dyes such as resazurin. Furthermore, cellular counter screens exist for the evaluation of non-selective inhibition of linked reporter gene activity, such as firefly luciferase. Appropriate cell types can be equipped by stable transfection with a luciferase reporter gene whose expression is dependent on a constitutively active gene promoter, and such cells can be used as a counter-screen to eliminate non-selective inhibitors.
The compounds of formula (I) were examined for activity in the inhibition of HCV RNA replication in a cellular assay. […] The cellular assay was based on a bicistronic expression construct, as described by Lohmann et al. (1999) Science vol. 285 pp. 110-113 with modifications described by Krieger et al. (2001) Journal of Virology 75: 4614-4624, in a multi-target screening strategy. In essence, the method was as follows.
The assay utilized the stably transfected cell line Huh-7 luc/neo (hereafter referred to as Huh-Luc). This cell line harbors an RNA encoding a bicistronic expression construct comprising the wild type NS3-NS5B regions of HCV type 1b translated from an Internal Ribosome Entry Site (IRES) from encephalomyocarditis virus (EMCV), preceded by a reporter portion (FfL-luciferase), and a selectable marker portion (neo^R, neomycine phosphotransferase). The construct is bordered by 5′ and 3′ NTRs (non-translated regions) from HCV type 1b. Continued culture of the replicon cells in the presence of G418 (neo^R) is dependent on the replication of the HCV RNA. The stably transfected replicon cells that express HCV RNA, which replicates autonomously and to high levels, encoding inter alia luciferase, are used for screening the antiviral compounds.
The replicon cells were plated in 384 well plates in the presence of the test and control compounds which were added in various concentrations. Following an incubation of three days, HCV replication was measured by assaying luciferase activity (using standard luciferase assay substrates and reagents and a Perkin Elmer ViewLux™ ultraHTS microplate imager). Replicon cells in the control cultures have high luciferase expression in the absence of any inhibitor. The inhibitory activity of the compound on luciferase activity was monitored on the Huh-Luc cells, enabling a dose-response curve for each test compound. EC50 values were then calculated, which value represents the amount of the compound required to decrease by 50% the level of detected luciferase activity, or more specifically, the ability of the genetically linked HCV replicon RNA to replicate.

Chain of full-length hepatitis C NS3 protease enzyme (HCV NS3/4A protease complexes) (P27958 1027-1657, one chain of several): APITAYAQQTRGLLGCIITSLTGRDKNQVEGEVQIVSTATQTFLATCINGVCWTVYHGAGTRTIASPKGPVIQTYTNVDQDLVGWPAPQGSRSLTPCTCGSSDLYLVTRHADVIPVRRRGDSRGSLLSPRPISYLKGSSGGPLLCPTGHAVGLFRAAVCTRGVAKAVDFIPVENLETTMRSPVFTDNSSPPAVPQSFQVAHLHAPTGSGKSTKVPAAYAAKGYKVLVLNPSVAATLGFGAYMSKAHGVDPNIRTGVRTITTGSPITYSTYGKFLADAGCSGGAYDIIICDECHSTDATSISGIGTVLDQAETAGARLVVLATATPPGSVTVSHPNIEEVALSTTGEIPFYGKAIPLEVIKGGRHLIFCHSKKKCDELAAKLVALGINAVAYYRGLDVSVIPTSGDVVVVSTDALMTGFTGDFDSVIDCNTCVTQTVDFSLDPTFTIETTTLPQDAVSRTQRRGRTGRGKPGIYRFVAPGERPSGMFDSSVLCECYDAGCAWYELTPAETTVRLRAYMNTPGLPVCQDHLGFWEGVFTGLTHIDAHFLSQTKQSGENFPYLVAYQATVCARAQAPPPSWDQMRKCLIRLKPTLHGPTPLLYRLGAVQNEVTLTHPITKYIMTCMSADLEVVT

Work on COc1ccc2c(O[C@@H]3C[C@H]4C(=O)N[C@]5(C(=O)NS(=O)(=O)C6CC6)C[C@H]5/C=C\CCCCN(C)C(=O)[C@@H]4C3)nc(-c3ccccc3)nc2c1 [Compound 21, Cyclopropanesulfonic acid [17-(7-methoxy-2-phenyl-quinazolin-4-yloxy)-13-methyl-2,14-dioxo-3,13-diaza-tricyclo[13.3.0.0*4,6*]octadec-7-ene-4-carbonyl]-amide] yielded a Ki [1] of 0.1 to 4.9 nM and an EC50 [2] of 0.5 to 199 nM.

Work on CN1CCCC/C=C\[C@@H]2C[C@@]2(C(=O)NS(=O)(=O)C2CC2)NC(=O)[C@@H]2C[C@@H](Oc3nc(-c4ccccc4)nc4ccccc34)C[C@H]2C1=O [Compound 31, Cyclopropanesulfonic acid [13-methyl-2,14-dioxo-17-(2-phenylquinazolin-4-yl-oxy)3,13-diaza-tricyclo[13.3.0.0*4,6*]octadec-7-ene-4-carbonyl]amide] yielded a Ki [1] of 0.1 to 4.9 nM and an EC50 [2] of 0.5 to 199 nM.

CN1CCN(c2nc(O[C@@H]3C[C@H]4C(=O)N[C@]5(C(=O)NS(=O)(=O)C6CC6)C[C@H]5/C=C\CCCCN(C)C(=O)[C@@H]4C3)c3ccccc3n2)CC1 [Compound 34, Cyclopropanesulfonic acid {13-methyl-17-[2-(4-methyl-piperazin-1-yl)quinazolin-4-yloxy]-2,14-dioxo-3,13-diaza-tricyclo[13.3.0.0*4,6*]octadec-7-ene4-carbonyl}-amide] showed a Ki [1] of 5 to 99.9 nM and an EC50 [2] of 200 to 990 nM.

Molecule CN1CCCC/C=C\[C@@H]2C[C@@]2(C(=O)NS(=O)(=O)C2CC2)NC(=O)[C@@H]2C[C@@H](Oc3nc(N4CCOCC4)nc4ccccc34)C[C@H]2C1=O [Compound 36, Cyclopropanesulfonic acid [13-methyl-17-(2-morpholin-4-yl-quinazolin-4-yloxy)-2,14-dioxo-3,13-diaza-tricyclo[13.3.0.0*4,6*]octadec-7-ene-4-carbonyl]-amide] has a Ki [1] of 5 to 99.9 nM and an EC50 [2] of 200 to 990 nM.

Work on CC(C)c1csc(-c2nc(O[C@@H]3C[C@H]4C(=O)N[C@]5(C(=O)NS(=O)(=O)C6CC6)C[C@H]5/C=C\CCCCN(C)C(=O)[C@@H]4C3)c3ccccc3n2)n1 [Compound 44, Cyclopropanesulfonic acid {17-[2-(4-isopropyl-thiazol-2-yl)-quinazolin-4-yloxy-]-13-methyl-2,14-dioxo-3,13-diaza-tricyclo[13.3.0.0*4,6*]octadec-7-ene-4-carbonyl}-amide] yielded a Ki [1] of 0.1 to 4.9 nM and an EC50 [2] of 0.5 to 199 nM.

For COc1ccc2c(O[C@@H]3C[C@H]4C(=O)N[C@]5(C(=O)NS(=O)(=O)C6CC6)C[C@H]5/C=C\CCCCN(C)C(=O)[C@@H]4C3)nc(-c3nc(C(C)C)cs3)nc2c1 [Compound 45, Cyclopropanesulfonic acid {17-[2-(4-isopropyl-thiazol-2-yl)-7-methoxy-quinazolin-4-yloxy]-13-methyl-2,14-dioxo-3,13-diaza-tricyclo[13.3.0.0*4,6*]octadec-7-ene-4-carbonyl}-amide], the Ki [1] was 0.1 to 4.9 nM and the EC50 [2] was 0.5 to 199 nM.

For COc1ccc2c(O[C@@H]3C[C@H]4C(=O)N[C@]5(C(=O)NS(=O)(=O)C6CC6)C[C@H]5/C=C\CCCCN(C)C(=O)N4C3)nc(-c3ccccc3)nc2c1 [Compound 53, Cyclopropanesulfonic acid [17-(7-methoxy-2-phenyl-quinazolin-4-yloxy)-13-methyl-2,14-dioxo-3,13,15-triaza-tricyclo[13.3.0.0*4,6*]octadec-7-ene-4-carbonyl]-amide], the Ki [1] was 0.1 to 4.9 nM and the EC50 [2] was 0.5 to 199 nM.

Molecule CC(C)Nc1nc(O[C@@H]2C[C@H]3C(=O)N[C@]4(C(=O)NS(=O)(=O)C5CC5)C[C@H]4/C=C\CCCCN(C)C(=O)[C@@H]3C2)c2ccccc2n1 [Compound 71, Cyclopropanesulfonic acid [17-(2-isopropylamino-quinazolin-4-yloxy)-13-methyl-2,14-dioxo-3,13-diaza-tricyclo[13.3.0.0*4,6*]octadec-7-ene-4-carbonyl]-amide] has a Ki [1] of 0.1 to 4.9 nM and an EC50 [2] of 200 to 990 nM.

For CN1CCCC/C=C\[C@@H]2C[C@@]2(C(=O)NS(=O)(=O)C2CC2)NC(=O)[C@@H]2C[C@@H](Oc3nc(N4CCCC4)nc4ccccc34)C[C@H]2C1=O [Compound 72, Cyclopropanesulfonic acid [13-methyl-2,14-dioxo-17-[2-pyrrolidin-1-yl)-quinazolin-4-yloxy]-3,13-diaza-tricyclo[13.3.0.0*4,6*]octadec-7-ene-4-carbonyl]-amide], the Ki [1] was 0.1 to 4.9 nM and the EC50 [2] was 200 to 990 nM.

Work on CN1CCCC/C=C\[C@@H]2C[C@@]2(C(=O)NS(=O)(=O)C2CC2)NC(=O)[C@@H]2C[C@@H](Oc3nc(-c4ccc(C#N)cc4)nc4ccccc34)C[C@H]2C1=O [Compound 73, Cyclopropanesulfonic acid {17-[2-(4-cyano-phenyl)-quinazolin-4-yloxy]-13-methyl-2,14-dioxo-3,13-diaza-tricyclo[13.3.0.0*4,6*]octadec-7-ene-4-carbonyl}-amide] yielded a Ki [1] of 100 to 1000 nM and an EC50 [2] of over 10000 nM.

COc1ccc2c(O[C@@H]3C[C@H]4C(=O)N[C@]5(C(=O)NS(=O)(=O)C6CC6)C[C@H]5/C=C\CCCCN(C)C(=O)[C@@H]4C3)nc(-c3ccccc3)nc2c1C [Compound 89, Cyclopropanesulfonic acid [17-(7-methoxy-8-methyl-2-phenyl-quinazolin-4-yloxy)-13-methyl-2,14-dioxo-3,13-diaza-tricyclo[13.3.0.0*4,6*]octadec-7-ene-4-carbnyl]-amide] showed a Ki [1] of 0.1 to 4.9 nM and an EC50 [2] of 0.5 to 199 nM.

For COc1ccc2c(O[C@@H]3C[C@H]4C(=O)N[C@]5(C(=O)NS(=O)(=O)C6CC6)C[C@H]5/C=C\CCCCN(C)C(=O)N4C3)nc(-c3ccccc3)nc2c1C [Compound 94, Cyclopropanesulfonic acid [17-(7-methoxy-8-methyl-2-phenyl-quinazolin-4-yloxy)-13-methyl-2,14-dioxo-3,13,15-triaza-tricyclo[13.3.0.0*4,6*]octadec-7-ene-4-carbonyl]-amide], the Ki [1] was 0.1 to 4.9 nM and the EC50 [2] was 0.5 to 199 nM.

COc1ccc2c(O[C@@H]3C[C@H]4C(=O)NC5(C(=O)NS(=O)(=O)C6CC6)C[C@H]5/C=C\CCCCN(C)C(=O)N4C3)nc(-c3ccc(F)cc3)nc2c1C (some centres unmarked) [Compound 98, Cyclopropanesulfonic acid {17-[2-(4-fluoro-phenyl-(7-methoxy-8-methyl-quinazolin-4-yloxy)-13-methyl-2,14-dioxo-3,13,15-triaza-tricyclo[13.3.0.0*4,6*]octadec-7-ene-4-carbonyl}-amide] gave a Ki [1] of 0.1 to 4.9 nM and an EC50 [2] of 0.5 to 199 nM.
